Test results from PMC4020173 (Bioorganic & medicinal chemistry, 2014).
Entries after “also recorded” stand apart in the source; their conditions may differ.

Tests used:
[1] = system: MDA-MB-436 human breast cancer xenograft tumors; test: MicroPET imaging with [^18F]12 in MDA-MB-436 tumor-bearing mice; format: in vivo; conditions: MDA-MB-436 tumors in mice; olaparib 50 mg/kg i.p. or 12 1 mg/kg i.p., 20 min prior to tracer injection
[2] = system: MDA-MB-231 tumors; test: MicroPET imaging with [^18F]12 in MDA-MB-231 tumor-bearing mice; format: in vivo; conditions: MDA-MB-231 tumor in mice; olaparib i.p. 50 mg/kg 20 min pretreatment; time-radioactivity curves

| Compound | Effect of pretreatment on [^18F]12 uptake in tumor (blocking) [1] | Effect of pretreatment on [^18F]12 uptake in tumor (blocking) [2] |
| --- | --- | --- |
| O=C1NCCn2c(-c3ccc(OCCF)cc3)nc3cccc1c32 [Compound 12, 5,6-Dihydro-2-(4-(2-fluoroethoxy)phenyl)-imidazo[4,5,1-jk][1,4]benzodiazepin-7(4H)-ones] | decreased [^18F]12 uptake in the tumors to the background tissue activity levels; also recorded: blocked |  |
| O=C(c1cc(Cc2n[nH]c(=O)c3ccccc23)ccc1F)N1CCN(C(=O)C2CC2)CC1 [olaparib] | blocked; also recorded: decreased [^18F]12 uptake in the tumors to the background tissue activity levels | decreased [^18F]12 uptake |
